Consider 1 substance from US20230265167A1, “COMPOSITIONS HAVING NEUROREGENERATIVE APPLICATIONS” (GRIFOLS WORLDWIDE OPERATIONS LIMITED, priority 2020, published 2023).

“Also recorded” adds a separate entry of the source.

In experiment [1] the test system is C57BL/6J mice with transient MCAo. Kind of experiment: Neurogenesis in dentate gyrus of mice after transient MCAo (BrdU/DCX, BrdU/NeuN immunohistochemistry). The settings on record: 350 mg/kg i.p. daily 7 days, vs saline; for number of new neuroblasts (BrdU+/DCX+ cells): FIG. 9A, two-week period; for number of newly formed mature neurons (BrdU+/NeuN+ cells): FIG. 9B, after 4 weeks. Type of experiment: in vivo, mouse. Here is the method: (§1) C57BL/6J mice (ca. 20 g) were anaesthetized under isoflurane and, after dissection, a 6.0 silicon-coated monofilament suture was inserted into the external carotid artery to occlude the middle cerebral artery (MCAo). The occlusion was carried out for 60 minutes under temperature control.
(§2) Only animals with a ‘neuroscore’ of 4 or greater were considered for further testing (n=8-10 animals/group). At six hours post-occlusion, mice were injected daily with 350 mg/kg of Apo-transferrin (i.p.) or an equal volume of saline for a total of seven days, as well as with 50 mg/kg Bromodeoxyuridine (BrdU; Sigma-Aldrich Chemical, St. Louis, Mo.), both articles delivered by intraperitoneal administration. Weight changes were monitored daily.
At the times indicated in Example 9, brains were prepared for analysis by transcardial perfusion with ice cold heparinized saline (heparin at 2.5 IU/ml) in order to remove blood from the brains. Fresh brains were removed leaving the right cerebellum attached to whole left-brain hemisphere to help orientate the brain block in sectioning. The whole left hemisphere block was placed in 4% paraformaldehyde in 0.1 M phosphate buffer (PB) for 24 hours at +4° C., then cryoprotected in 30% sucrose in 0.1 M PB for 2-3 days on a shaker at +4° C. The brain was then blotted to remove excess liquid, placed on top of a vial cork and frozen on top of liquid nitrogen; the block was then stored at −80° C. until cryostat sections are obtained. Neurogenesis was evaluated by immunohistochemistry using antibodies against BrdU and Doublecortin (DCX) to quantify new neuroblasts or against BrdU and NeuN to quantify new neurons in the dentate gyrus of the brain.

Experiment [2] shares this test system. Kind of experiment: Neuroscore recovery after transient MCAo. The note with it: FIG. 10A, 3-14 days after MCAo, vs saline. The format is in vivo, mouse. The method, then:
as §1, §2
Mice were prepared as indicated in Example 9 above and were subjected to assessments at 3 days and 1, 2, 3, 4 weeks post-MCAo, as indicated (n=8-10 animals/group). Motor coordination (i.e. equilibrium behavior and locomotor ability as a function of cortico-striatal function) was assessed using a rotarod test. Learning and memory capacity were measured using the NORT (novel object recognition test; for example, Anglada-Huguet et al., 2014, Molecular Neurobiology, vol. 49, pages 784-795; Denninger et al., 2018, J. Vis. Exp., vol. 141, e58593). […]

A further experiment deals with HIF-1α. The note with it: reported in US2016008437; cited from earlier work.
The subject of experiment [3] is primary human brain cortex-derived neural progenitor cells. Nature of the experiment: Differentiation of primary human neural progenitor cells (β-III-tubulin / GFAP staining). The format is cell-based. The note with it: 0.8 mg/mL, 72 hours. The method, then:
Neural progenitor cells maintained as neurospheres were obtained from Lonza (PT-2599). Cells were thawed from a frozen vial of neurospheres and cultured in Human NeuroCult™ NS-A Complete Proliferation media (Stemcell Technologies) for 2 weeks. Neurospheres were dissociated to single cells and plated in Laminin coated wells of assay plates. The neural progenitor cells were seeded in NeuroCult™ NS-A Basal media containing 1/10th concentration of the recommended proliferation supplements, in the absence or presence of ApoTf (0.8 mg/mL) for 72 hours. At the time of analysis, cells were fixed with paraformaldehyde, stained for β-III-tubulin (R&D Systems, MAB1195) and GFAP (Invitrogen, PA3-16727), and imaged on a Molecular Devices Nano imaging instrument. Image analysis was performed by assessing the relative numbers of cells staining positive for β-III-tubulin or GFAP. Values for the indicated conditions are shown with standard deviations as “% β-III-Tubulin Positive” cells (FIG. 2A) or “% GFAP Positive” cells (FIG. 2B).

The subject of a further experiment is rat model of stroke. The note with it: vs control rats; cited from earlier work.
The test system of experiment [4] is SH-SY5Y cells. Nature of the experiment: β-III-tubulin staining intensity in SH-SY5Y cells. The note with it: FIG. 1D. The format is cell-based, human. The method, then:
In this experiment, the SH-SY5Y cells were differentiated as described supra. At the time of analysis, cells were fixed with paraformaldehyde, stained for β-III-tubulin (R&D Systems, MAB1195), and imaged on a Molecular Devices Nano imaging instrument. Image analysis was performed by assessing the fluorescent intensity of cells stained with β-III-tubulin. Background from secondary antibody alone was subtracted from all values. Values are shown with standard deviations as “β-III-Tubulin Staining Intensity” for the indicated conditions.

In experiment [5] the test system is SH-SY5Y cells. Nature of the experiment: Cell number / proliferation of SH-SY5Y cells by imaging. Type of experiment: cell-based, human. Here is the method: Undifferentiated SH-SY5Y cells were seeded into 96 well clear bottom plates in media containing 0.1% FBS. A serum-free base media was utilized as recommended by the supplier for SH-SY5Y cells (Sigma, Cat #94030304-1VL). Twenty-four hours after seeding cells, a 3× stock solution of ApoTf, final concentrations indicated on the x-axis, in serum free base media was added to the cells. ApoTf was obtained and purified from pooled human plasma and dosed at a final concentration of 0.2 mg/mL.
Cells were allowed to differentiate for 6 days. Neurite growth was assessed by imaging and image analysis. At the time of analysis, a 10× solution of Tubulin Tracker (Molecular Probes, T34075) and Hoechst 33342 (Molecular Probes #H3570) nuclear stain was prepared.
Briefly, Tubulin Tracker dissolved in DMSO was diluted 1:1 with Pluronic F-127 and further diluted into HBSS to generate a 10× solution. Hoechst 33342 was added to the HBSS-Tubulin Tracker solution at 10 μg/mL to generate a 10× nuclear stain. […]
After obtaining images, the MetaExpress Neurite Outgrowth analysis module (Molecular Devices) was used to identify cells, cell bodies, and quantify neurites. […] The Outgrowth Fold Change was determined by setting the untreated control cells to a value of 1 with all other treatments shown relative to untreated control.

On to “apo-transferrin: iron-free form of transferrin protein, obtained and purified from pooled human plasma”, for which the “number of new neuroblasts (BrdU+/DCX+ cells)” value was “increases the amount of neurogenesis” in experiment [1] and “increases the number of neuroblasts” in experiment [1] (listed as ApoTf). The entries for the “number of newly formed mature neurons (BrdU+/NeuN+ cells)” value in experiment [1] and in experiment [1] (listed as ApoTf) were “increases the amount of neurogenesis” and “number of newly formed mature neurons are higher”, respectively. For the same substance, the “rate of recovery (percentage of animals with neuroscore 0)” value in experiment [2] is on record as “quicker recovery”; in experiment [2] (listed as ApoTf), “significantly improves the rate at which the animals recover”. Further, in the experiment on HIF-1α, the HIF-1α production result was “can induce HIF-1α production”. The “% β-III-Tubulin Positive cells (neurons)” value in experiment [3] (FIG. 2A) is listed as “dramatically increases the percentage of cells differentiated to neurons; also recorded: induces primary human neural progenitor cells to become β-III-tubulin protein positive neurons”. Also, the “% GFAP Positive cells (astrocytes)” value in experiment [3] (FIG. 2B) is listed as “dramatically increases; also recorded: GFAP protein positive astrocytes cells”. The “volume of the infarcted area (neuroprotective effect)” value in the experiment with rat model of stroke is “decrease in the volume of the infarcted area”. Also, the “β-III-Tubulin Staining Intensity” value in the experiment on SH-SY5Y cells [4] is “caused an increase in β-III-tubulin protein”. Further, in the experiment with SH-SY5Y cells [5] (FIG. 1B, up to 0.8 mg/mL), the “cell numbers (cell proliferation)” value is “induces a concentration-dependent increase in cell numbers”. The “cell proliferation, visual comparison to untreated control” value in the experiment with SH-SY5Y cells [5] (FIG. 1C, 0.1 mg/mL) is given as “profound effect on promoting cell proliferation”.
